These are literature values, as cited in US20110130710A1, “TREATMENT OF ABNORMAL OR EXCESSIVE SCARS” (priority 2007, published 2011).

For data set [1] the following is noted: applied topically.
The test system of a further data set is epithelial tissue. Conditions: about 50 μl, topical application.

With platelet derived growth factor [PDGF], the “effective dose of PDGF” value in data set [1] is no less than 5 ng/mm^2.

B1: keratinocyte growth factor (protein, UniProt P21781 32-194, looked up)
Fibroblast growth factor 7: CNDMTPEQMATNVNCSSPERHTRSYDYMEGGDIRVRRLFCRTQWYLRIDKRGKVKGTQEMKNNYNIMEIRTVAVGIVAIKGVESEFYLAMNKEGKLYAKKECNEDCNFKELILENHYNTYASAKWTHNGGEMFVALNQKGIPVRGKKTKKEQKTAHFLPMAIT
notes: growth factor useful for wound healing
In the case of B1, the “concentration of KGF that may be effective for wound healing” value in the data set with epithelial tissue is given as “about 5 μg/ml”.
